Each compound was assayed against human neprilysin (EC 3.4.24.11; NEP) (Homo sapiens (Human), UniProt P08473) (assay: In vitro enzyme inhibition assay at human NEP (fluorogenic peptide substrate)). Settings: pKi values at human NEP, recombinant human NEP.
Format: biochemical
Outline: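 pKi derived from apparent Ki fitted as v=v0/[1+(I/K′)] to Ex320/Em405 fluorescence. Compounds (pM to 10 μM) sat with recombinant human enzyme 30 min at 37 °C before 10 μM fluorogenic Mca peptide was added in HEPES pH 7.5 buffer with 10 μM ZnSO4; 20 min reaction, acetic acid quench.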

Sequence of human neprilysin (EC 3.4.24.11; NEP) (P08473 52-750): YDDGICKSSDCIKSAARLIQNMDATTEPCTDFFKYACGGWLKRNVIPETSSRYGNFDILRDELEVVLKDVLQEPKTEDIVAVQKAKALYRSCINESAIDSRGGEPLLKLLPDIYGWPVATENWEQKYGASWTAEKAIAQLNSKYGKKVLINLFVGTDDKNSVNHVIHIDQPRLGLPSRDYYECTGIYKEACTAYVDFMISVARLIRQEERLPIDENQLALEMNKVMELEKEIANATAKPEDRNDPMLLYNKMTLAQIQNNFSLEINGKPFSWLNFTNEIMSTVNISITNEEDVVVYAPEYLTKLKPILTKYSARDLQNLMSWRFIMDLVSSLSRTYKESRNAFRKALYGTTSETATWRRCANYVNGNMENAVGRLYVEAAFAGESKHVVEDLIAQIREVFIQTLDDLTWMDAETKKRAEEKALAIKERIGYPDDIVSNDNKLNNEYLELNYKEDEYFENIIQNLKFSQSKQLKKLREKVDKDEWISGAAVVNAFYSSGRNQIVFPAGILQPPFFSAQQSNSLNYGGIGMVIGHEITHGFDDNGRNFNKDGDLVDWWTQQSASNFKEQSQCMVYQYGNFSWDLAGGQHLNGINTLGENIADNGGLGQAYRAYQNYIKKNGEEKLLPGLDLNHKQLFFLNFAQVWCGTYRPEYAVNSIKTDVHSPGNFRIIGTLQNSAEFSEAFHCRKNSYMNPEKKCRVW

Row | Structure (SMILES) | pKi | Ki
1 | COc1ccccc1-c1cc(C(=O)N[C@H](Cc2ccc(-c3ccccc3)cc2)C[C@@H](O)C(=O)O)[nH]n1 [Example 15-79, (2R,4R)-5-Biphenyl-4-yl-2-hydroxy-4-{[5-(2-methoxy-phenyl)-2H-pyrazole-3-carbonyl]-amino}-pentanoic acid] | ≥9.0 | 
2 | COc1ccc(OC)c(-c2cc(C(=O)N[C@H](Cc3ccc(-c4ccccc4)cc3)C[C@@H](O)C(=O)O)[nH]n2)c1 [Example 15-80, (2R,4R)-5-Biphenyl-4-yl-4-{[5-(2,5-dimethoxy-phenyl)-2H-pyrazole-3-carbonyl]-amino}-2-hydroxy-pentanoic acid] | ≥9.0 | 
3 | O=C(N[C@H](Cc1ccc(-c2ccccc2)cc1)CC(O)C(=O)O)c1cc(-c2ccccc2C(F)(F)F)n[nH]1 (stereo partly drawn) [Example 15-81, (R)-5-Biphenyl-4-yl-2-hydroxy-4-{[5-(2-trifluoromethyl-phenyl)-2H-pyrazole-3-carbonyl]-amino}-pentanoic acid] |  | 12.6 to 100 nM
4 | O=C(N[C@H](Cc1ccc(-c2ccccc2)cc1)CC(O)C(=O)O)c1cc(-c2ccc(F)cc2)n[nH]1 (stereo partly drawn) [Example 15-82, (R)-5-Biphenyl-4-yl-4-{[5-(4-fluorophenyl)-2H-pyrazole-3-carbonyl]amino}-2-hydroxy-pentanoic acid] |  | 1.26 to 10 nM
5 | O=C(NC(Cc1ccc(-c2ccccc2)cc1)C[C@@H](O)C(=O)O)c1cc(-c2ccc(Cl)cc2)n[nH]1 (stereo partly shown) [Example 15-83] | ≥9.0 | 
6 | O=C(N[C@H](Cc1ccc(-c2ccccc2)cc1)C[C@@H](O)C(=O)O)c1cc(-c2ccccc2Cl)n[nH]1 [Example 15-84, (2R,4R)-5-Biphenyl-4-yl-4-{[5-(2-chlorophenyl)-2H-pyrazole-3-carbonyl]amino}-2-hydroxy-pentanoic acid] | ≥9.0 | 
7 | COc1ccc(F)cc1-c1cc(C(=O)N[C@H](Cc2ccc(-c3ccccc3)cc2)C[C@@H](O)C(=O)O)[nH]n1 [Example 15-86, (2R,4R)-5-Biphenyl-4-yl-4-{[5-(5-fluoro-2-methoxy-phenyl)-2H-pyrazole-3-carbonyl]-amino}-2-hydroxy-pentanoic acid] | ≥9.0 | 
8 | Cc1ccc(-c2cc(C(=O)N[C@H](Cc3ccc(-c4ccccc4)cc3)C[C@@H](O)C(=O)O)[nH]n2)s1 [Example 15-89, (2R,4R)-5-Biphenyl-4-yl-2-hydroxy-4-{[5-(5-methylthiophen-2-yl)-2H-pyrazole-3-carbonyl]-amino}-pentanoic acid] | ≥9.0 | 
9 | O=C(N[C@H](Cc1ccc(-c2ccccc2)cc1)C[C@@H](O)C(=O)O)c1cc(-c2ccc(Cl)s2)n[nH]1 [Example 15-90, (2R,4R)-5-Biphenyl-4-yl-4-{[5-(5-chlorothiophen-2-yl)-2H-pyrazole-3-carbonyl]-amino}-2-hydroxy-pentanoic acid] | ≥9.0 | 
10 | CCC(=O)Nc1cc(C(=O)N[C@H](Cc2ccc(-c3ccccc3)cc2)CC(O)C(=O)O)[nH]n1 (stereo partly drawn) [Example 15-91, (R)-5-Biphenyl-4-yl-2-hydroxy-4-[(5-propionylamino-2H-pyrazole-3-carbonyl)-amino]-pentanoic acid] |  | 12.6 to 100 nM
11 | CCCCC(=O)Nc1cc(C(=O)N[C@H](Cc2ccc(-c3ccccc3)cc2)CC(O)C(=O)O)[nH]n1 (stereo partly drawn) [Example 15-92, (R)-5-Biphenyl-4-yl-2-hydroxy-4-[(5-pentanoylamino-2H-pyrazole-3-carbonyl)-amino]-pentanoic acid] |  | 12.6 to 100 nM
12 | CCOC(=O)Nc1cc(C(=O)N[C@H](Cc2ccc(-c3ccccc3)cc2)CC(O)C(=O)O)[nH]n1 (stereo partly drawn) [Example 15-93, (R)-5-Biphenyl-4-yl-4-[(5-ethoxycarbonylamino-2H-pyrazole-3-carbonyl)-amino]-2-hydroxy-pentanoic acid] |  | 12.6 to 100 nM
13 | COCC(=O)Nc1cc(C(=O)N[C@H](Cc2ccc(-c3ccccc3)cc2)CC(O)C(=O)O)[nH]n1 (stereo partly drawn) [Example 15-94, (R)-5-Biphenyl-4-yl-2-hydroxy-4-{[5-(2-methoxy-acetylamino)-2H-pyrazole-3-carbonyl]-amino}-pentanoic acid] |  | 12.6 to 100 nM
14 | COc1ccccc1C(=O)Nc1cc(C(=O)N[C@H](Cc2ccc(-c3ccccc3)cc2)CC(O)C(=O)O)[nH]n1 (stereo partly drawn) [Example 15-95, (R)-5-Biphenyl-4-yl-2-hydroxy-4-{[5-(2-methoxy-benzoylamino)-2H-pyrazole-3-carbonyl]-amino}-pentanoic acid] |  | 1.26 to 10 nM
15 | O=C(N[C@H](Cc1ccc(-c2ccccc2)cc1)C[C@@H](O)C(=O)O)c1cc(NC(=O)c2ccccc2Cl)n[nH]1 [Example 15-96, (2R,4R)-5-Biphenyl-4-yl-4-{[5-(2-chlorobenzoylamino)-2H-pyrazole-3-carbonyl]-amino}-2-hydroxy-pentanoic acid] | ≥9.0 | 
16 | O=C(Nc1cc(C(=O)N[C@H](Cc2ccc(-c3ccccc3)cc2)CC(O)C(=O)O)[nH]n1)c1ccccn1 (stereo partly drawn) [Example 15-100, (R)-5-Biphenyl-4-yl-2-hydroxy-4-({5-[(pyridine-2-carbonyl)-amino]-2H-pyrazole-3-carbonyl}-amino)-pentanoic acid] |  | 1.26 to 10 nM

Row | Structure (SMILES) | pKi | Ki
17 | Nc1cc(C(=O)N[C@H](Cc2ccc(-c3ccccc3)cc2)CC(O)C(=O)O)n[nH]1 (stereo partly drawn) [Example 15-101, (R)-4-[(5-Amino-2H-pyrazole-3-carbonyl)-amino]-5-biphenyl-4-yl-2-hydroxy-pentanoic acid] |  | 12.6 to 100 nM
18 | O=C(N[C@H](Cc1ccc(-c2ccccc2)cc1)C[C@@H](O)C(=O)O)c1cc(-c2ccccn2)n[nH]1 [Example 15-102, (2R,4R)-5-Biphenyl-4-yl-2-hydroxy-4-[(5-pyridin-2-yl-2H-pyrazole-3-carbonyl)-amino]-pentanoic acid] |  | ≤ 1 nM
19 | O=C(N[C@H](Cc1ccc(-c2ccccc2)cc1)C[C@@H](O)C(=O)O)c1cc(-c2cnccn2)n[nH]1 [Example 15-106, (2R,4R)-5-Biphenyl-4-yl-2-hydroxy-4-[(5-pyrazin-2-yl-2H-pyrazole-3-carbonyl)-amino]pentanoic acid] |  | 1.26 to 10 nM
20 | CC(=O)c1cc(C(=O)N[C@H](Cc2ccc(-c3ccccc3)cc2)C[C@@H](O)C(N)=O)[nH]n1 [Example 15-108, 5-Acetyl-2H-pyrazole-3-carboxylic acid ((1R,3R)-1-biphenyl-4-ylmethyl-3-carbamoyl-3-hydroxypropyl)amide] |  | 12.6 to 100 nM
21 | C[C@H](O)c1cc(C(=O)N[C@H](Cc2ccc(-c3ccccc3)cc2)C[C@@H](O)C(=O)O)[nH]n1 [Example 15-109, (2R,4R)-5-Biphenyl-4-yl-2-hydroxy-4-{[5-((S)-1-hydroxyethyl)-2H-pyrazole-3-carbonyl]amino}pentanoic acid] |  | 1.26 to 10 nM
22 | C[C@@H](O)c1cc(C(=O)N[C@H](Cc2ccc(-c3ccccc3)cc2)C[C@@H](O)C(=O)O)[nH]n1 [Example 15-110, (2R,4R)-5-Biphenyl-4-yl-2-hydroxy-4-{[5-((R)-1-hydroxyethyl)-2H-pyrazole-3-carbonyl]amino}pentanoic acid] |  | 1.26 to 10 nM
23 | C/C(=N\O)c1cc(C(=O)N[C@H](Cc2ccc(-c3ccccc3)cc2)C[C@@H](O)C(=O)O)[nH]n1 [Example 15-111, (2R,4R)-5-Biphenyl-4-yl-2-hydroxy-4-[(5-{1-[(E)-hydroxyimino]-ethyl}-2H-pyrazole-3-carbonyl)-amino]-pentanoic acid] | ≥9.0 | 
24 | CCCCc1cc(C(=O)N[C@H](Cc2ccc(-c3ccccc3)cc2)C[C@@H](O)C(=O)O)[nH]n1 [Example 15-112, (2R,4R)-5-Biphenyl-4-yl-4-[(5-butyl-2H-pyrazole-3-carbonyl)-amino]-2-hydroxy-pentanoic acid] |  | 1.26 to 10 nM
25 | O=C(N[C@H](Cc1ccc(-c2ccccc2)cc1)CC(O)C(=O)O)c1cn[nH]c1 (stereo partly drawn) [Example 15-113, (R)-5-Biphenyl-4-yl-2-hydroxy-4-[(1H-pyrazole-4-carbonyl)amino]pentanoic acid] |  | 12.6 to 100 nM
26 | O=C(N[C@H](Cc1ccc(-c2ccccc2)cc1)C[C@@H](O)C(=O)O)c1cc2n(n1)CCOc1ccccc1-2 [Example 16-1, (2R,4R)-5-Biphenyl-4-yl-4-[(4,5-dihydro-6-oxa-3,3a-diaza-benzo[e]azulene-2-carbonyl)-amino]-2-hydroxy-pentanoic acid] | ≥9.0 | 
27 | O=C(N[C@H](Cc1ccc(-c2ccccc2)cc1)C[C@@H](O)C(=O)O)c1cc2nn1CCOc1ccccc1-2 [Example 16-2, (2R,4R)-5-Biphenyl-4-yl-2-hydroxy-4-[(8-oxa-11,14-diaza-tricyclo[9.2.1.02,7]tetradeca-1(14),2,4,6,12-pentaene-12-carbonyl)-amino]-pentanoic acid] |  | 12.6 to 100 nM
28 | O=C(N[C@H](Cc1ccc(-c2ccccc2)cc1)C[C@@H](O)C(=O)O)c1cc2n(n1)CCCOc1ccccc1-2 [Example 16-3, (2R,4R)-5-Biphenyl-4-yl-2-hydroxy-4-[(10-oxa-5,6-diaza-tricyclo[9.4.0.02,6]pentadeca-1(15),2,4,11,13-pentaene-4-carbonyl)-amino]-pentanoic acid] |  | 1.26 to 10 nM
29 | O=C(N[C@H](Cc1ccc(-c2ccccc2)cc1)C[C@@H](O)C(=O)O)c1cc2n(n1)C[C@H](O)COc1ccccc1-2 [Example 16-4, (2R,4R)-5-Biphenyl-4-yl-2-hydroxy-4-[((S)-8-hydroxy-10-oxa-5,6-diaza-tricyclo[9.4.0.02,6]pentadeca-1(15),2,4,11,13-pentaene-4-carbonyl)-amino]-pentanoic acid] |  | 1.26 to 10 nM
30 | O=C(N[C@H](Cc1ccc(-c2ccccc2)cc1)C[C@@H](O)C(=O)O)c1cc2n(n1)C[C@@H](O)COc1ccccc1-2 [Example 16-5, (2R,4R)-5-Biphenyl-4-yl-2-hydroxy-4-[((R)-8-hydroxy-10-oxa-5,6-diaza-tricyclo[9.4.0.02,6]pentadeca-1(15),2,4,11,13-pentaene-4-carbonyl)-amino]-pentanoic acid] |  | 12.6 to 100 nM
31 | O=C(N[C@H](Cc1ccc(-c2ccccc2)cc1)C[C@@H](O)C(=O)O)c1cc2n(n1)COc1ccccc1-2 [Example 16-6, (2R,4R)-5-Biphenyl-4-yl-2-hydroxy-4-[(5-oxa-3,3a-diaza-cyclopenta[a]naphthalene-2-carbonyl)-amino]-pentanoic acid] |  | 1.26 to 10 nM
